Reference: paper PMC12998938, “Neutrophil store-operated Ca^2+ entry: A correctable biomarker of cystic fibrosis lung disease progression” (Journal of cystic fibrosis : official journal of the …, 2025)

Columns and labels:
MRSA-infected mice = test system: MRSA-infected mice; set-up: method as in earlier work; conditions: reduced lung injury, increased survival, ref [21]; cited from earlier work
Orai2 = test: SOCE in triple knockout HEK293T cells transfected with Orai2; assay type: cell-based
Excerpt: We hypothesized that inhibiting SOCE in CF neutrophils may reduce the secretion of neutrophil elastase and other proteins associated with CF lung disease. To validate ELD607’s specificity for Orai1 over Orai2 and Orai3, we first evaluated ELD607 function in HEK293T cells that had Orai1, Orai2 and Orai3 stably knocked out. […] Next we evaluated ELD607’s ability to inhibit SOCE in non-CF and CF neutrophils.
Supplemental figure 3. […] Dose responses of thapsigargin-induced changes in cytoplasmic Ca^2+ concentrations. These studies were performed in HEK293T where Orai1, Orai2 and Orai3 had been stably knocked down (triple knockout cells, TKO) or in TKO cells that were transiently transfected with Orai1, Orai2 or Orai3 as indicated. All data are from 7-9 replicates per data point from 3 separate experiments.

neutrophil elastase = conditions: cited from earlier work
CF neutrophils = test: Neutrophil degranulation multiplex assay, CF neutrophils; assay type: cell-based, human; conditions: 3 h, 1 μM thapsigargin 30 min, vs vehicle, paired t-test
Experimental: (§1) Neutrophils were immediately isolated by negative selection from deidentified blood samples using an EasySep human neutrophil isolation kit (Stem Cell Technologies) as described. Cytosolic Ca^2+ was measured using Fluo-4 as described. Protein lysate from isolated blood neutrophils was characterized by liquid chromatography with tandem mass spectrometry (LC-MS/MS) as described. Degranulation products in media were quantified by Luminex assay using a custom Bio-Plex human kit (BioRad) per the manufacturer’s protocol […]. Detailed methods for all experiments and measurements are provided in an online data supplement.
Multiple neutrophil functions, including neutrophil degranulation, are Ca^2+ dependent. Neutrophil degranulation results in an increase in several proteases in the lung, including neutrophil elastase, a key driver of CF lung damage. Accordingly, we investigated the impact of ELD607 on neutrophil degranulation as a marker of Ca^2+-dependent neutrophilic function. We used a multiplex assay to quantify key granule proteins released into media after a 3 h pretreatment with 10 μM ELD607 or vehicle control followed by a 30 min stimulation with 1 μM thapsigargin. Levels of myeloperoxidase (MPO; primary granules), lactoferrin (specific granules) and matrix metalloproteinase-9 (MMP9; tertiary granules) release were similar between non-CF and CF neutrophils (Fig. 4A–C).
Fig. 4. ELD607 inhibits degranulation in non-CF and CF neutrophils. Neutrophil degranulation (A-C) was assayed by measuring the concentration of representative constituents of (A) primary granules, MPO (non-CF, n = 9; CF, n = 13); (B) secondary granules, lactoferrin (non-CF, n = 12; CF, n = 17) and (C) tertiary granules, MMP-9 (non-CF, n = 9; CF, n = 12). […]
Multiplex assay. […] Supernatant was collected and analyzed for a panel of neutrophil granule proteins (MPO, lactoferrin, MMP9) using a Bio-Plex human kit (BioRad) per the manufacturer’s protocol. Plates were then analyzed using a Bio-Plex MAGPIX System (BioRad).

[1] = test system: SOCE/Orai1 in CF peripheral blood neutrophils; test: Fluo-4 Ca2+ assay, global thapsigargin-stimulated Ca2+ response (SOCE), CF neutrophils; assay type: cell-based, human
Experimental: as §1
Isolated neutrophils were incubated with peptide or vehicle control for 3 h. For the final hour of treatment, cells were loaded with Fluo-4 direct (Thermofisher) for 45 min at 37°C and 15 min at room temperature as described.
Fluo-4 Ca^2+ assays. Isolated neutrophils were incubated with peptide or vehicle control for 3 h. For the final hour of treatment, cells were loaded with Fluo-4 direct (Thermofisher) for 45 min at 37°C and 15 min at room temperature. For global Ca^2+ measurements, baseline fluorescent readings were made for 2 min (1 read every 30 s) using a Tecan Infinite M1000 plate reader (ex 494 em 516 nm, bandwidth 5 nm) before thapsigargin (Sigma-Aldrich) was added and the change in emission was recorded for 10 min (1 read every 30 s). To isolate phases of store operated Ca^2+ entry, cells underwent 3 rounds of centrifugation and resuspension in Ca^2+-free Ringer’s solution to remove extracellular Ca^2+. Baseline fluo-4 fluorescence was read for 2 min before cell were stimulated with thapsigargin (Tocris). Reads continued for ~5 min before 1.2 mM Ca^2+ was added to the extracellular solution and SOCE was measured for ~10 mins. For analysis, all fluo-4 fluorescence reads are normalized to baseline.

Orai1 = conditions: cartoon legend; reference not given; cited from earlier work
Excerpt: Fig. 6. Cartoon of SOCE in neutrophils in the absence (left) and presence (right) of ELD607. Left, activation of Gq-linked GPCRs by appropriate agonists (e.g. ATP) leads to formation of inositol triphosphate (IP3) and ER store Ca^2+ depletion. This in turn causes STIM1 to rapidly aggregate at ER-plasma membrane junctions where it causes Orai1 to activate and aggregate to provide a second, amplifying wave of Ca^2+ which triggers neutrophil degranulation, as well as activating other Ca^2+-dependent processes (not shown). Right, ELD607 binds to Orai1, causing it to be ubiquitinated, internalized ...

Question: With “VHDIVNMLIRG [ELD607, size-optimized SPLUNC1/α6 peptidomimetic]” as the sequence, how does the “neutrophil influx into the lungs” value (MRSA-infected mice) read?
Answer: reduces neutrophil influx into the lungs of mice

Question: And the “sensitivity of SOCE to ELD607” value (Orai2; TKO + Orai2, thapsigargin, dose response, 7-9 replicates)?
Answer: relatively insensitive

Question: What about the “specificity for Orai1: effect on Orai2” value (Orai2; discussion summary of supplemental figure 3) of the same sequence?
Answer: little effect on Orai2 and Orai3

Question: And the “stability in neutrophil elastase” value (neutrophil elastase)?
Answer: protease-resistant and stable in CF patient-derived neutrophil elastase

Question: And the “MMP9 release (tertiary granules)” value (CF neutrophils; n = 12, 10 μM)?
Answer: significantly reduced

Question: What about the “MPO release (primary granules)” value (CF neutrophils; n = 13, 10 μM) of the same sequence?
Answer: significantly reduced

Question: And the “lactoferrin release (specific/secondary granules)” value (CF neutrophils; n = 17, 10 μM)?
Answer: significantly reduced

Question: What about the “inhibition of SOCE (global Ca2+ response)” value ([1]; CF, 10 μM peptide, 3 h pre-treatment, 1 μM thapsigargin, Fluo-4, N = 21 donors) of the same sequence?
Answer: significantly inhibited SOCE regardless of genotype

Question: What about the “completeness of inhibition of Ca2+ signaling” value ([1]; neutrophils (discussion of Fig. 3)) of the same sequence?
Answer: not 100% inhibited

Question: What about the “effect on Orai1” value (Orai1) of the same sequence?
Answer: binds to Orai1, causing it to be ubiquitinated, internalized and degraded
